# From the supplement of paper PMC11208160
# Assay: recombinant barcode read abundance after kanamycin selection (control-corrected) (log10(CPM+1)); higher = more efficient recombination; sequences stand for … in AGTGCAGAGAAAATCGGCCAGTTTTCTCTGCCTGCAGTCCGCATGCCGT…AGATTTATGCAGCGGACTGCCTTTCTCCCAAAGTGATAAACCGGACAGTATCATGGACCGGTTTTCCCGGTAATCCGTATTTGCAAGGTTGGTTTCACT; site = the 11-nt target
# Procedure, shortened: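 IS621 bridge RNA target-binding loops were paired with targets in a pooled library tested in E. coli. After co-electroporation with a donor plasmid, cells were plated in two replicates on chloramphenicol/ampicillin LB agar (control) and on chloramphenicol/ampicillin/kanamycin carrying 0.1 mM IPTG. Barcodes at recombinant junctions were counted as counts per million, averaged and control-corrected to give recombination efficiency. Values are log10(CPM+1).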
# 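Also: IS621 recombinase and bridge RNA in Escherichia coli cells.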
row,Sequence,recombinant barcode read abundance (log10)
1,CGAACTACTTGGGTTCTAACCTGTTGCCT (site CGAACTACTAT),0.316
2,CGAATGTCTTGGGTTCTAACCTGTTGCGT (site CGAATGTCTAC),0.991
3,CGAATGTCTTGGGTTCTAACCTGTTGCGT (site CGACTGCCTAC),0.0251
4,CGACAGTCTTGGGTTCTAACCTGTTGCGT (site CGACAGTCTAC),2.41
5,CGACAGTCTTGGGTTCTAACCTGTTGCGT (site CGGCAGTCTAC),0.153
6,CGACCCTCTTGGGTTCTAACCTGTTGCCT (site AGACCCTCTAG),0.0358
7,CGACCCTCTTGGGTTCTAACCTGTTGCCT (site CGACCCTCTAG),1.74
8,CGACCCTCTTGGGTTCTAACCTGTTGCCT (site GGACCCTCTAG),0.17
9,CGACCCTCTTGGGTTCTAACCTGTTGCCT (site TGACCCTCTAG),0.381
10,CGACGAGCTTGGGTTCTAACCTGTTGCGG (site CCACGAGCTCC),0.352
11,CGACGAGCTTGGGTTCTAACCTGTTGCGG (site CGACGAGCTCC),1.22
12,CGAGATCCTTGGGTTCTAACCTGTTGCAT (site CGAGATCCTAT),1.29
13,CGAGATCCTTGGGTTCTAACCTGTTGCAT (site CGAGGTACTAT),0
14,CGAGATCCTTGGGTTCTAACCTGTTGCCT (site CGACATCCTAG),0.214
15,CGAGATCCTTGGGTTCTAACCTGTTGCCT (site CGAGATCCTAG),0.678
16,CGAGGTACTTGGGTTCTAACCTGTTGCAT (site CGAGATCCTAT),0.0262
17,CGAGGTACTTGGGTTCTAACCTGTTGCAT (site CGAGGTACTAT),1.87
18,CGATACACTTGGGTTCTAACCTGTTGCCG (site CGATACACTCG),0.571
19,CGATACACTTGGGTTCTAACCTGTTGCCG (site CGATCCACTCA),0.052
20,CGATCACCTTGGGTTCTAACCTGTTGCCT (site CGATCACCTAG),0.105

row,Sequence,recombinant barcode read abundance (log10)
1,CGATCACCTTGGGTTCTAACCTGTTGCCT (site TTCGGCTCTTA),0.665
2,CGATCCACTTGGGTTCTAACCTGTTGCTG (site CGATACACTCG),0.16
3,CGATCCACTTGGGTTCTAACCTGTTGCTG (site CGATCCACTCA),0.483
4,CGATGGACTTGGGTTCTAACCTGTTGCTG (site AAGCTTGCTAG),0.0171
5,CGATGGACTTGGGTTCTAACCTGTTGCTG (site CGATGGACTCA),1.81
6,CGATTTCCTTGGGTTCTAACCTGTTGCCT (site CGATTTCCTAG),0.0837
7,CGATTTCCTTGGGTTCTAACCTGTTGCCT (site CGATTTCCTAT),0.102
8,CGCAATGCTTGGGTTCTAACCTGTTGCCT (site CGAAATGCTAG),0.125
9,CGCAATGCTTGGGTTCTAACCTGTTGCCT (site CGCAATGCTAG),0.07
10,CGCAATGCTTGGGTTCTAACCTGTTGCCT (site CGGAATGCTAG),0.469
11,CGCAATGCTTGGGTTCTAACCTGTTGCCT (site CGTAATGCTAG),0.322
12,CGCAGCACTTGGGTTCTAACCTGTTGCCT (site AGCAGCACTAG),0.067
13,CGCAGCACTTGGGTTCTAACCTGTTGCCT (site CGCAGCACTAG),0.63
14,CGCCAGCCTTGGGTTCTAACCTGTTGCCT (site CGCCAGCCTAG),0.0113
15,CGCCAGCCTTGGGTTCTAACCTGTTGCCT (site CGCCTGCCTAG),0
16,CGCCCTTCTTGGGTTCTAACCTGTTGCCT (site CGCCCTTCTAG),0.0296
17,CGCCCTTCTTGGGTTCTAACCTGTTGCCT (site TAAGGGACTTA),0.0823
18,CGCCGTACTTGGGTTCTAACCTGTTGCCT (site CGACGTACTAG),0.264
19,CGCCGTACTTGGGTTCTAACCTGTTGCCT (site CGCCGTACTAG),0.405
20,CGCCGTACTTGGGTTCTAACCTGTTGCCT (site CGGCGTACTAG),0.349

row,Sequence,recombinant barcode read abundance (log10)
1,CGCCGTACTTGGGTTCTAACCTGTTGCCT (site CGTCGTACTAG),0.0659
2,CGCCTCACTTGGGTTCTAACCTGTTGCCT (site CGCCTCACTAG),0.0456
3,CGCCTCACTTGGGTTCTAACCTGTTGCCT (site CGCCTCCCTAG),0.152
4,CGCCTCACTTGGGTTCTAACCTGTTGCCT (site CGCCTCGCTAG),0.166
5,CGCCTCACTTGGGTTCTAACCTGTTGCCT (site CGCCTCTCTAG),0.0333
6,CGCGAGTCTTGGGTTCTAACCTGTTGCTG (site CGCGAGTCTCA),0.254
7,CGCGAGTCTTGGGTTCTAACCTGTTGCTG (site TAATTTGCTAG),0.142
8,CGCGCCACTTGGGTTCTAACCTGTTGCCT (site CGCGCCACTAG),0.383
9,CGCGCCACTTGGGTTCTAACCTGTTGCCT (site TAGCAGTCTGC),0.188
10,CGCGCCTCTTGGGTTCTAACCTGTTGCCG (site CGCGCCTCTCG),0.0377
11,CGCGCCTCTTGGGTTCTAACCTGTTGCCG (site GGCCCCTCTCG),0.362
12,CGCGGGGCTTGGGTTCTAACCTGTTGCCT (site CGCGCGGCTAG),0.392
13,CGCGGGGCTTGGGTTCTAACCTGTTGCCT (site CGCGGGGCTAG),0.662
14,CGCGGTCCTTGGGTTCTAACCTGTTGCCT (site CGCGATCCTAG),0.305
15,CGCGGTCCTTGGGTTCTAACCTGTTGCCT (site CGCGCTCCTAG),0.109
16,CGCGGTCCTTGGGTTCTAACCTGTTGCCT (site CGCGGTCCTAG),0.0165
17,CGCGGTCCTTGGGTTCTAACCTGTTGCCT (site CGCGTTCCTAG),0.084
18,CGCTAGACTTGGGTTCTAACCTGTTGCCT (site CGCTAGACTAG),0.13
19,CGCTAGACTTGGGTTCTAACCTGTTGCCT (site CGCTCGACTAG),0.0159
